Results published in paper PMC9918186, “Interaction of Positively Charged Oligopeptides with Blood Plasma Proteins” (International Journal of Molecular Sciences, 2023).

How the values were obtained:
BSA = biological target: T1, BSA (Bos taurus, UniProt P02769); test: ATR-FTIR Amide I deconvolution, secondary structure of BSA with peptide; set-up: species or system bovine; conditions: for Random Coil of BSA / β-Anti of BSA / β-Sheet of BSA / β-Turn of BSA / α-Helix of BSA: ATR-FTIR Amide I
T1 construct: purchased Sigma Aldrich
Text: The perturbation in protein structure conformation can be monitored by CD spectroscopy as well as the ATR-FTIR method. These secondary structure changes are confirmation of the interaction between the studied compound and the protein [64, 65, 66, 67]. The range of the wavenumber from 1700 to 1000 cm^−1 is the most varied region and with the richest information on protein spectra. The most characteristic bands are Amide I and Amide II, which originate from the C=O stretching vibration and C–N– stretching coupled with N–H bending, respectively. Amide I was detected for BSA at 1652 cm^−1 and GGF at 1637 cm^−1 (Figure 4). The differences in the position of these bands are connected with the variety in the secondary structure conformation, while Amide II consistently occurred at 1545 and 1546 cm^−1 on the BSA and GGF spectra, respectively (Figure 4). The much less intense peak of Amide III usually accrued by C–N– stretching and bending vibration was only noticed in the BSA spectrum at 1307 cm^−1 (Figure 4). The peaks detected at 1454 cm^−1 (BSA) and 1452 cm^−1 (GGF) appeared by CH3 group symmetric and asymmetric bending vibration (δs, δas). The absorption signal 1400 cm^−1 may be assigned to stretching vibration (ν) caused by the carboxylic group (COO^−). The studied peptides interact with BSA and GGF, which is manifested by a reduction in the intensity of the absorption peaks (Figure 4). With the increase in the ligand concentration in the protein solution, the intensity of the absorption peaks decreased (Figure 4). The Amide I and II in the BSA spectrum decreased above all after binding with L1 and slightly in the samples from L2 and L3. […] Moreover, after the complexation of the investigated peptides with GGF, an increase in the band 1060 cm^−1 was responsible for stretching vibration C–O absorption, which was manifested the most by L2 and L3 compounds.
The shape and intensity variation in the Amide I band is the confirmation of peptide L1, L2, and L3 interaction with the protein’s backbone. The hydrogen bonds in the protein structure are violated after the active molecules’ binding and influence the frequency of the C=O vibrations’ absorption. The frequency of stretching vibrations can be reduced after changes in hydrogen bonding in the protein, whereas the frequency of bending vibrations can be increased after ligand to protein complexation. The Byler and Susi procedure was used to analyse the secondary structure protein conformation. The quantity analysis of the secondary structure in the protein is mostly conducted based on Amide I deconvolution, and it is the most frequently analyzed vibration band, which is very vulnerable to the detection of changes in the structure. The fragment of each normalized spectrum with the Amide I peak was extracted and a second derivate was made. The self-deconvolution and curve fitting by the Gaussian/Lorenzian function allowed determination of the intensity and total area under the peaks, which corresponds with the contribution of the type of structure. The position of each band component may be assigned to a corresponding shape of the secondary structure: the α-helix (1660–1647 cm^−1), β-sheet (1640–1610 cm^−1), β-turn (1660–1680 cm^−1), β-antiparallel (1681–1695 cm^−1), and random coil (1650–1630 cm^−1) structures.
The infrared spectra were measured on Nicolet iS50 FTIR (Thermo Scientific, Waltham, MA, USA) spectrometer equipped with Attenuated Total Reflectance (ATR) accessory. The deuterated triglicyne sulphate (DTGS) detector and KBr beam splitter were applied. The spectral data were recorded within the range of 4000 to 600 cm^−1 with a resolution of 4 cm^−1 and 100 scans were averaged for each spectrum. The measurements were accomplished at room temperature. The concentration of blood plasma proteins BSA (Sigma Aldrich, USA), and GGF (Sigma Aldrich, USA) were 6.5 × 10^−4 moldm^−3. […]

[1] = biological target: bovine serum albumin (BSA) (Bos taurus, UniProt P02769); test: Site-marker displacement (phenylbutazone, ibuprofen) on BSA, fluorescence; type: binding; set-up: purchased Sigma Aldrich; conditions: 297 K, BSA 5.0 µM, marker 10.0 µM
Experimental: To check if L1–L3 bind to BSA at the two Sudlow drug sites (site 1 and 2 [34, 60]), displacement studies were conducted by using phenylbutazone (PHB) and ibuprofen (IBP) as site probes. […] The fluorescence emission spectra of BSA and site markers during the titration of L1–L3 were recorded. The experimental data were analyzed using Equation (3). Binding constants in the presence of site markers were calculated and compared with Kb without PHB or IBP.
Concentrations of BSA and site markers were set at 5.0 × 10^−6 and 10.0 × 10^−6 moldm^−3, respectively.

T1 sequence (P02769 25-607): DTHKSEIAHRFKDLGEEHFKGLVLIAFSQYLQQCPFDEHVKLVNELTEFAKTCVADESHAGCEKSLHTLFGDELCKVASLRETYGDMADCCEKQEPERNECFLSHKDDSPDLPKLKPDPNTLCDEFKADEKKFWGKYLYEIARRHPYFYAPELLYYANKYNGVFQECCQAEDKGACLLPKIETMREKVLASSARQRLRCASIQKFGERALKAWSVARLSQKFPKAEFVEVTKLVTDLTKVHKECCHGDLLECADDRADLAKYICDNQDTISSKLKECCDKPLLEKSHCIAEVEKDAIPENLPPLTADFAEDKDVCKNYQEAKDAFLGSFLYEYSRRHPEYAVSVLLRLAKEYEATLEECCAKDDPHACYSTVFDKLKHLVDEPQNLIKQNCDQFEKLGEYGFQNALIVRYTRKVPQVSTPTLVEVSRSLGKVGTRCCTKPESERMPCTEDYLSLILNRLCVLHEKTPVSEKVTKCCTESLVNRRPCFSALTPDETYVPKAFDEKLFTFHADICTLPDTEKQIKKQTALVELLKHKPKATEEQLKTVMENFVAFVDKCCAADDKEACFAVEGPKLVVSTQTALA
Sequence of bovine serum albumin (BSA) (P02769 25-607): as above

Random Coil of BSA (BSA; BSA/peptide 1:0.5): 26.54%
β-Anti of BSA (BSA; BSA/peptide 1:0.5): 0.77%
β-Sheet of BSA (BSA; BSA/peptide 1:0.5): 3.87%
β-Turn of BSA (BSA; BSA/peptide 1:0.5): 7.47%
α-Helix of BSA (BSA; BSA/peptide 1:0.5, BSA 6.5 × 10^−4 M, room temperature): 61.36%
Random Coil of BSA (BSA; BSA/peptide 1:1.0): 27.93%
α-Helix of BSA (BSA; BSA/peptide 1:1.0): 49.45%
β-Anti of BSA (BSA; BSA/peptide 1:1.0): 0.49%
β-Sheet of BSA (BSA; BSA/peptide 1:1.0): 8.28%
β-Turn of BSA (BSA; BSA/peptide 1:1.0): 13.86%
Random Coil of BSA (BSA; BSA/peptide 1:1.5): 27.61%
α-Helix of BSA (BSA; BSA/peptide 1:1.5): 49.40%
β-Anti of BSA (BSA; BSA/peptide 1:1.5): 0.31%
β-Sheet of BSA (BSA; BSA/peptide 1:1.5): 8.69%
β-Turn of BSA (BSA; BSA/peptide 1:1.5): 13.99%
differences in the secondary structure of BSA (BSA; ATR-FTIR, after peptide addition): 16%
decrease of β-antiparallel framework of albumin (BSA; ATR-FTIR, versus free BSA): about 2%
growth of β-sheet of albumin (BSA; ATR-FTIR, versus free BSA): 7.05%
growth of β-turn of albumin (BSA; ATR-FTIR, versus free BSA): 7.34%
increase in the share of the random structure of albumin (BSA; ATR-FTIR, versus free BSA): 2%
reduction in the α-helix of albumin (BSA; ATR-FTIR, versus free BSA): more than 14%
logKb ([1]; BSA + IBP (site II)): 4.03 ± 0.15
logKb ([1]; BSA + PHB (site I)): 4.00 ± 0.12
Substance: Lys-Dab-Dab-Gly-Orn-Pro-His-Lys-Arg-Lys-Dbt [L1]
